According to ChEMBL document CHEMBL1134456, “Design, synthesis and pharmacological characterization of a potent radioiodinated and photoactivatable peptidic oxytocin antagonist” (J Med Chem, 2001):
Starred links: 1 amine or outer side, 2 acyl side, 3 side chain; linkers in the order of their positions; H or OH if unused. Positions of bridges follow the written chain, without caps; N, C: chain ends. Non-standard residues stand in square brackets, D forms with d. Residues, ends and D or L forms follow the SMILES beside them. X1 = [N-]=[N+]=Nc1ccc(C[C@H](N[*:1])C(=O)[*:2])cc1I; X2 = O=C(CC1(S[*:2])CCCCC1)[*:1]; Orn = NCCC[C@H](N)C(=O)O

Assays:
Oxytocin receptor [1] = target: T1, Oxytocin receptor (Homo sapiens, UniProt P30559); test: Binding affinity towards OT receptor in CHO cells expressing the human OT receptor; assay type: cell-based
T1 sequence (P30559 whole entry): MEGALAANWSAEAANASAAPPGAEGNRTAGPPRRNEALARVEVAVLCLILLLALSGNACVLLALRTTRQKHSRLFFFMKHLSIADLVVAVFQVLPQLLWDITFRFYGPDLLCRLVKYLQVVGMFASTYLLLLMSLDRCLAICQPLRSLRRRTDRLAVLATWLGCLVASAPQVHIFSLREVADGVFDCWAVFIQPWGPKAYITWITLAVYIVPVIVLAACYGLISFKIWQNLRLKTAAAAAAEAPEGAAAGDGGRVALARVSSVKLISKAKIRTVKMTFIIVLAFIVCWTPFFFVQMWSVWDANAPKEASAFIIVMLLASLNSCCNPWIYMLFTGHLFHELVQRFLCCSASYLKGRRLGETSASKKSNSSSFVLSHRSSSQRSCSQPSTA

Oxytocin receptor [2] = target: T1, Oxytocin receptor; test: Dissociation constant value for human OT-receptor
Oxytocin receptor [3] = target: T1, Oxytocin receptor; test: Ability to inhibit OT-induced inositol phosphate accumulation was determined in CHO cells expressing the human OT receptor; assay type: functional, cell-based

`CC[C@H](C)[C@@H]1NC(=O)[C@H](Cc2ccc(OC)cc2)NC(=O)CC2(CCCCC2)SSC[C@@H](C(=O)NCC(=O)N[C@@H](CCCN)C(=O)N[C@@H](Cc2ccc(N=[N+]=[N-])c(I)c2)C(N)=O)NC(=O)[C@H](CC(N)=O)NC(=O)[C@H]([C@@H](C)O)NC1=O` (Y(Me)ITNCG[Orn][X1]-NH2; linker N-5 via X2) was tested, and the Ki (Oxytocin receptor [1]; cho) was 2.3 nM.
Work on `CC[C@H](C)[C@@H]1NC(=O)[C@H](Cc2ccc(OC)cc2)NC(=O)CC2(CCCCC2)SSC[C@@H](C(=O)N2CCC[C@H]2C(=O)N[C@@H](CCCN)C(=O)N[C@@H](Cc2ccc(N=[N+]=[N-])c(I)c2)C(N)=O)NC(=O)[C@H](CC(N)=O)NC(=O)[C@H]([C@@H](C)O)NC1=O` (Y(Me)ITNCP[Orn][X1]-NH2; linker N-5 via X2) yielded a Kd (Oxytocin receptor [2]) of 0.25 nM, an IC50 (Oxytocin receptor [3]) of 0.32 nM and a Ki (Oxytocin receptor [1]; cho) of 0.3 nM.
Work on `CC[C@H](C)[C@@H]1NC(=O)[C@H](Cc2ccc(O)cc2)NC(=O)CC2(CCCCC2)SSC[C@@H](C(=O)NCC(=O)N[C@@H](CCCN)C(=O)N[C@@H](Cc2ccc(N=[N+]=[N-])c(I)c2)C(N)=O)NC(=O)[C@H](CC(N)=O)NC(=O)[C@H]([C@@H](C)O)NC1=O` (YITNCG[Orn][X1]-NH2; linker N-5 via X2) yielded a Ki (Oxytocin receptor [1]; cho) of 18 nM.
`CC[C@H](C)[C@@H]1NC(=O)[C@H](Cc2ccc(O)cc2)NC(=O)CC2(CCCCC2)SSC[C@@H](C(=O)N2CCC[C@H]2C(=O)N[C@@H](CCCN)C(=O)N[C@@H](Cc2ccc(N=[N+]=[N-])c(I)c2)C(N)=O)NC(=O)[C@H](CC(N)=O)NC(=O)[C@H]([C@@H](C)O)NC1=O` (YITNCP[Orn][X1]-NH2; linker N-5 via X2) gave a Ki (Oxytocin receptor [1]) of 0.6 nM.
